Experimental data published in patent US12421249B2, “Inhibitors of APOL1 and methods of using same” (Vertex Pharmaceuticals Incorporated, priority 2020, dated 2025).

Experiments:
[1] = molecular target: T1, APOL1 G1 (Homo sapiens, UniProt O14791, I384M/S342G); assay: Trypanosoma brucei brucei Lysis Assay Using APOL1 Recombinant Protein (AlamarBlue viability readout); type: cell-based; conditions: Trypanosome Assay; for IC50: IP50 = IC50 for cell proliferation, read-out: Trypanosome Assay IP50; for Emax: read-out: Trypanosome Assay Max Activity (%)
T1 sequence (O14791 28-398 S342G/I384M): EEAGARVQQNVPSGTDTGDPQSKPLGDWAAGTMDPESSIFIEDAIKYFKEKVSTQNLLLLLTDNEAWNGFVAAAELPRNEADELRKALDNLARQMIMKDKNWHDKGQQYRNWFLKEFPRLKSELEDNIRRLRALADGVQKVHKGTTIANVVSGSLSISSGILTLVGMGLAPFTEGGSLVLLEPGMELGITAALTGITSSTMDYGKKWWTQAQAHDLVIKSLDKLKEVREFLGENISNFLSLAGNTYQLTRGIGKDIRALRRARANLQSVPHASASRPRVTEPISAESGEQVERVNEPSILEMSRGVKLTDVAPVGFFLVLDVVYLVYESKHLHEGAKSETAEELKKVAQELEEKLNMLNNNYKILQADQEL
Description: Trypanosoma brucei brucei is a blood stream parasite to which human, gorillas, and baboons are immune due to the presence of the APOL1 protein in their HDL particles. The protein is uptaken by the parasite via the TbHpHb receptor located in its flagellar pocket and is bonded by the Hpr protein contained in the HDL particles which triggers the receptor endocytosis by the parasite.
Following endocytosis, the formed vesicle containing the HDL particle matures from early to late endosome, and subsequently to lysosome. The concomitant pH change in the lumen of the vesicle triggers the insertion of the APOL1 protein into the membrane of the late endosome/lysosome and hereby triggers lysosomal membrane permeabilization and as a further downstream event, trypanosome lysis. Trypanosoma brucei brucei is sensitive to lysis by all three APOL1 variants (G0, G1, and G2).
The Trypanosoma brucei brucei lysis assay is a lysis assay of the parasite using recombinant APOL1 protein variant followed by a fluorescent detection method of viability by the addition of AlamarBlue reagent to the assay well, a general metabolic redox indicator (AlamarBlue assay).
Briefly, the AlamarBlue active compound, resazurin, a blue, water soluble, non-toxic and cell permeable molecule, which can be followed by absorbance, is reduced by various metabolic pathways into resorufin, a red compound which can be followed by either absorbance or fluorescence. The assay allows the calculation of the percent viability (percent of living Trypanosomes remaining in each well) at the end of a lysis relative to the untreated condition by interpolation of fluorescent values (FLU) on a standard curve with a known amount of seeded trypanosome/well.
Trypanosoma brucei brucei (ATCC, Cat. No. PRA-382)
• Lister 427 VSG 221 bloodstream form.
Equipment • E1-Clip Tip pipette 12 channel adjustable 2-125 μL, Cat. No. 4672070BT • ThermoFisher MultiDrop 384, Cat. No. 5840300 • Multidrop • Agilent Bravo, Cat. No. G5409A • Bravo • SpectraMax M5 Assay Ready Plates (ARPs) • ARPs comes in two formats: • […] final top concentration with a 2.5 fold dilution down. • […] final top concentration with a 3 fold dilution down. • Both have a 10 point Dose response. • 0.1% DMSO final in the Black Assay Plate. • Compounds are diluted 1000 fold in the Black Assay Plate. • Each plate is designed for 14 compounds in duplicate. • In the final Black Assay Plate: • Column 1: Media only (no APOL1) (100% viable) • Column 2-23: 0.05 μg/mL APOL1 (˜EC90) (10% viable with APOL1) • Column 24: 0.1 μg/mL APOL1 (EC100) (Approx. […] Step 2, Day 4 • Centrifuge at 800×g for 5 minutes at room temperature. • Resuspend in 1 mL media. • Make a 1:25 fold dilution (10 μL/240 μL media). • Count on a hemocytometer (after adding parasites). • Let sit for 1-2 minutes for the parasites to settle. • Count should be approximately 100 viable motile parasites/16 grid or approximately 25×10^6 parasites/flask. • Passage the parasites by adding 1×10^6 parasites/T75 flask in 20 mL media. • Passage the parasites by adding 2.33×10^6 parasites/T175 flask in 46.6 mL media. • For every T75 flask should make enough for approximately 1.5×384 well assay plates. • For every T175 flask should make enough for approximately 3.8×384 well assay plates. Step 3, Day 6 • Centrifuge at 800×g for 5 minutes. • Resuspend in 3 mL assay media (No phenol red, no FBS) per 75 starting flask. • Resuspend in 7 mL assay media (No phenol red, no FBS) per 175 flask • Make a 1:25 fold dilution. • Count by hemocytometer. • Every T75 flask set up should have approximately 75×10^6 parasites/flask (verify doubling time=8.7 hours±1 hour). • Every T175 flask set up should have approximately 175×10^6 parasites/flask (verify doubling time=8.7 hours±1 hour). • Require 46×10^6 parasites per 384 well plate (at 120,000 parasites per well). […]

[2] = molecular target: T2, APOL1 (Homo sapiens, UniProt O14791); assay: Multi-Tox Assay (MultiTox-Fluor Multiplex Cytotoxicity Assay in tet-inducible APOL1 T-REx-HEK293 cells; Table 46 does not say which APOL1 variant G0/G1/G2); type: cell-based; conditions: APOL1 variant not given; for IC50: IP50 = IC50 for cell proliferation
T2 sequence (O14791 1-398 S342G/I384M): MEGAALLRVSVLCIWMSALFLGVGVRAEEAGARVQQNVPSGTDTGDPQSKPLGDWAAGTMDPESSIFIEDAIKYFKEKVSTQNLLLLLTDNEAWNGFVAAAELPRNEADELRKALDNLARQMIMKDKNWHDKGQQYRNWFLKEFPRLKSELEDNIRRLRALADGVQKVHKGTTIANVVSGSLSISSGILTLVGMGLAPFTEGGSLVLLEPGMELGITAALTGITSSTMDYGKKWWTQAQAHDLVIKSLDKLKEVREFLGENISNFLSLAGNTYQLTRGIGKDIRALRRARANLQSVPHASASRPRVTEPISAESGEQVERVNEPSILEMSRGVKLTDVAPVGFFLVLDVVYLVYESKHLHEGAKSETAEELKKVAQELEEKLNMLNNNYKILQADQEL

COc1ccc([C@@H]2C[C@]3(C[C@H](C)N2)OCCc2cc(Cl)sc23)c(F)c1 (racemic) [Compound 44]
IC50 [1]: < 0.05 µM
Emax [1]: 106%
Multi-Tox Assay Max Activity (%) [2]: 99.5%
IC50 [2]: < 0.05 µM

C[C@H]1C[C@@]2(C[C@@H](c3ccc(C(N)=O)cc3)N1)OCCc1cc(Cl)sc12 (racemic) [Compound 47]
IC50 [1]: < 0.05 µM
IC50 [2]: < 0.05 µM

Cc1n[nH]c2ncc([C@@H]3C[C@]4(C[C@H](C)N3)OCCc3cc(Cl)sc34)cc12 (racemic) [Compound 48]
IC50 [1]: < 0.05 µM
Emax [1]: 102%
Multi-Tox Assay Max Activity (%) [2]: 99.0%
IC50 [2]: < 0.05 µM

COc1ccc([C@@H]2C[C@]3(C[C@H](C)N2)OCCc2cc(Cl)sc23)cn1 (racemic) [Compound 49]
IC50 [1]: < 0.05 µM
Emax [1]: 104%
IC50 [2]: < 0.05 µM

CC(=O)Nc1ccc([C@@H]2C[C@]3(C[C@H](C)N2)OCCc2cc(Cl)sc23)cc1 (racemic) [Compound 50]
IC50 [1]: < 0.05 µM
Emax [1]: 103%
Multi-Tox Assay Max Activity (%) [2]: 99.7%
IC50 [2]: < 0.05 µM

C[C@H]1C[C@@]2(C[C@@H](c3cnc(C4CC4)nc3)N1)OCCc1cc(Cl)sc12 (racemic) [Compound 52]
IC50 [1]: < 0.05 µM
Emax [1]: 104%
Multi-Tox Assay Max Activity (%) [2]: 99.7%
IC50 [2]: < 0.05 µM

C[C@H]1C[C@@]2(C[C@@H](c3cccc(C#N)n3)N1)OCCc1cc(Cl)sc12 (racemic) [Compound 53]
IC50 [1]: 0.05 to 0.5 µM
Emax [1]: 106%
Multi-Tox Assay Max Activity (%) [2]: 99.3%
IC50 [2]: < 0.05 µM

C[C@H]1C[C@@]2(C[C@@H](c3ccc4c(c3)NC(=O)CO4)N1)OCCc1cc(Cl)sc12 (racemic) [Compound 54]
IC50 [1]: < 0.05 µM
Emax [1]: 102%
IC90 [2]: < 0.05 µM
Multi-Tox Assay Max Activity (%) [2]: 100.0%
IC50 [2]: < 0.05 µM

Cc1ccc([C@@H]2C[C@]3(C[C@H](C)N2)OCCc2cc(Cl)sc23)cn1 (racemic) [Compound 55]
IC50 [1]: < 0.05 µM
Emax [1]: 112%
Multi-Tox Assay Max Activity (%) [2]: 99.7%
IC50 [2]: < 0.05 µM

C[C@H]1C[C@@]2(C[C@@H](c3cnn(CCO)c3)N1)OCCc1cc(Cl)sc12 (racemic) [Compound 56]
IC50 [1]: < 0.05 µM
Emax [1]: 116%
Multi-Tox Assay Max Activity (%) [2]: 99.8%
IC50 [2]: < 0.05 µM

C[C@H]1C[C@@]2(C[C@@H](c3cnc(N)nc3)N1)OCCc1cc(Cl)sc12 (racemic) [Compound 57]
IC50 [1]: < 0.05 µM
Emax [1]: 105%
Multi-Tox Assay Max Activity (%) [2]: 99.7%
IC50 [2]: < 0.05 µM

Cc1ccc([C@@H]2C[C@]3(C[C@H](C)N2)OCCc2cc(Cl)sc23)nn1 (racemic) [Compound 58]
IC50 [1]: < 0.05 µM
Emax [1]: 100%
Multi-Tox Assay Max Activity (%) [2]: 99.7%
IC50 [2]: < 0.05 µM

C[C@H]1C[C@@]2(C[C@@H](c3ccc(O)cn3)N1)OCCc1cc(Cl)sc12 (racemic) [Compound 59]
IC50 [1]: < 0.05 µM
Emax [1]: 116%
Multi-Tox Assay Max Activity (%) [2]: 99.3%
IC50 [2]: < 0.05 µM

CNc1ncc([C@@H]2C[C@]3(C[C@H](C)N2)OCCc2cc(Cl)sc23)cn1 (racemic) [Compound 60]
IC50 [1]: < 0.05 µM
Emax [1]: 102%
Multi-Tox Assay Max Activity (%) [2]: 99.7%
IC50 [2]: < 0.05 µM
